This passage reports EC50 results from patent publication EP3046573B1, “AMYLIN ANALOGUES” (Zealand Pharma A/S, priority 2013, dated 2015).

pEC50: −log10 of the molar value. Numbered stars: 1 amine (or outer) side, 2 acyl side, 3 side chain; on linkers, the order of the positions; unused ones are H or OH. Bridge positions count the residues as written; N and C are the ends. Square brackets hold non-standard residues; d marks the D form. Peptide text beside a SMILES is read from it. * marks the point of attachment. C20 diacid = O=C(O)CCCCCCCCCCCCCCCCCCC(=O)*; γGlu = O=C(O)[C@H](CCC(=O)[*:2])N[*:1]; NMeI = CC[C@H](C)[C@H](NC)C(=O)O; Sar = CNCC(=O)O

The target of this experiment is T1, human calcitonin receptor (hCTR2) (Homo sapiens, UniProt P30988).
T1 construct: expressed in transfected cells
T1 sequence (P30988 25-474): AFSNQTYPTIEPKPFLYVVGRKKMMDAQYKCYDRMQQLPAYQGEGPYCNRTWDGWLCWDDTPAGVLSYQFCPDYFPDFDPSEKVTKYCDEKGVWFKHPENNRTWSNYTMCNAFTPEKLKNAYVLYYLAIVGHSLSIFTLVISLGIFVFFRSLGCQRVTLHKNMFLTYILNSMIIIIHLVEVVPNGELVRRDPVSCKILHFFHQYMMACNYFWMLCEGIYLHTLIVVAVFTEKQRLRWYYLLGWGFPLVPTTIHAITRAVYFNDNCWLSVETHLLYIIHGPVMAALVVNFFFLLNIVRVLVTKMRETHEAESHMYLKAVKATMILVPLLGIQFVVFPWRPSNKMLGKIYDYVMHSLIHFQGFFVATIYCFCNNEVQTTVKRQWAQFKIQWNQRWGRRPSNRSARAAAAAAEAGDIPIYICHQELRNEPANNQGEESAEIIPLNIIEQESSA
Kind of experiment: hCTR2 assay: induction of cAMP (AlphaScreen cAMP Assay kit) in COS7 cells expressing hCTR2. Format: cell-based. The source says:
The cell line COS7, originating from African Green Monkey kidney fibroblast cells, was used for establishment of the stable cell lines described below. The COS7 cellular background was used due to it being RAMP naive, and as such it provides the best available system for testing of the monomeric hCTR and different heterodimeric amylin receptor subtypes functionally generated by introduction of the individual RAMPs.
A cell line expressing the human calcitonin receptor (hCTR2) was generated in the COS7 cellular background as stable clones. In brief, hCTR2 (GI: 4502547) was amplified by PCR using primers encoding terminal restriction sites for subcloning. The 5'-end primers additionally encoded a near Kozak consensus sequence to ensure efficient translation. The fidelity of the DNA encoding the receptor was confirmed by DNA sequencing. The PCR products encoding the receptor were subcloned into a mammalian expression vector containing a neomycin (G418) resistance marker. The mammalian expression vector encoding the receptor was transfected into COS7 cells by a standard liposome transfection method. 48 hours post-transfection, cells were seeded for limited dilution cloning and selected with 1 mg/ml G418 in the culture medium. After 3 weeks, surviving colonies of hCTR2-expressing cells were picked, propagated and tested in the amylin efficacy assay as described in Example 3 below. One hCTR2-expressing clone was chosen for compound profiling.
In vitro activity of test peptides at the hCTR2 and hAMYR3 receptors was assessed by measuring the induction of cAMP following stimulation of the receptor by pramlintide or peptides of the invention using the AlphaScreen® cAMP Assay kit from Perkin-Elmer.
Briefly, COS7 cells expressing hCTR2 (see Example 2, above) were seeded at 30-40,000 cells per well in 96-well microtiter plates coated with 0.01 % poly-L-lysine, and grown for 1 day in culture in 100 µl growth medium [DMEM, 10% FCS, Penicillin (100 IU/ml), Streptomycin (100 µg/ml)]. On the day of analysis, growth medium was removed and the cells were washed once with 200 µl Tyrode buffer [Tyrode's Salts (9.6 g/l), 10 mM HEPES, pH 7.4]. Cells were incubated in 100 µl Tyrode buffer containing increasing concentrations of test peptides, 100 µM IBMX and 0.1% casein for 15 min at 37° C. The reaction was stopped by carefully decanting off the compound/buffer medium and replacing it with lysis/detection buffer (80 µl 0.1 % w/v BSA, 5 mM HEPES, 0.3 % v/v Tween-20 in deionized water). After incubation at room temperature for 10 min., the cAMP content of the resulting cell lysate was estimated according to the AlphaScreen® cAMP Assay manufacturer's instructions. EC50 values and relative efficacy values (in %) compared to reference peptide (Pramlintide) were estimated by computer-aided curve fitting using the 4-parameter logistic (4PL) non-linear model.
The in vitro activity results (expressed as EC50 values) for peptides of the invention and for Pramlintide (reference peptide) are summarized in Table 2, below.
`CC[C@H](C)[C@@H](C(=O)N[C@@H](CC(C)C)C(=O)N[C@@H](CO)C(=O)N[C@@H](CO)C(=O)N[C@H](C(=O)N[C@@H](CC(N)=O)C(=O)N[C@H](C(=O)NCC(=O)N[C@@H](CO)C(=O)N[C@@H](CC(N)=O)C(=O)N[C@H](C(=O)N1CCC[C@H]1C(N)=O)[C@@H](C)O)C(C)C)[C@@H](C)O)N(C)C(=O)[C@H](C)NC(=O)CN(C)C(=O)[C@H](Cc1ccccc1)NC(=O)[C@H](CC(N)=O)NC(=O)[C@H](CC(N)=O)NC(=O)[C@H](CO)NC(=O)[C@H](CO)NC(=O)[C@H](Cc1c[nH]cn1)NC(=O)[C@H](Cc1c[nH]cn1)NC(=O)[C@H](CC(C)C)NC(=O)[C@H](Cc1ccccc1)NC(=O)[C@H](CCC(=O)O)NC(=O)[C@H](C)NC(=O)[C@@H](CC(C)C)NC(=O)[C@H](CCCNC(=N)N)NC(=O)[C@H](CCC(N)=O)NC(=O)[C@@H](NC(=O)[C@H](C)NC(=O)[C@@H]1CSSC[C@H](NC(=O)[C@H](CCCNC(=N)N)NC(=O)CC[C@H](NC(=O)CCCCCCCCCCCCCCCCCCC(=O)O)C(=O)O)C(=O)N[C@@H](CC(N)=O)C(=O)N[C@@H]([C@@H](C)O)C(=O)N[C@@H](C)C(=O)N[C@@H]([C@@H](C)O)C(=O)N1)[C@@H](C)O` [Compound 6, [19CD]-isoGlu-RC()NTATC()ATQR-DLeu-AEFLHHSSNNF-Gly(Me)-A-Ile(Me)-LSSTNVGSNTP-NH2] ({C20 diacid-γGlu}-RCNTATCATQR[dL]AEFLHHSSNNF[Sar]A[NMeI]LSSTNVGSNTP-NH2; disulfide 2-7): the pEC50 was 8.11.
With `CC[C@H](C)[C@@H](C(=O)N[C@@H](CC(C)C)C(=O)N[C@@H](CO)C(=O)N[C@@H](CO)C(=O)N[C@H](C(=O)N[C@@H](CC(N)=O)C(=O)N[C@H](C(=O)NCC(=O)N[C@@H](CO)C(=O)N[C@@H](CC(N)=O)C(=O)N[C@H](C(=O)N1CCC[C@H]1C(N)=O)[C@@H](C)O)C(C)C)[C@@H](C)O)N(C)C(=O)[C@H](C)NC(=O)CN(C)C(=O)[C@H](Cc1ccccc1)NC(=O)[C@H](CC(N)=O)NC(=O)[C@H](CC(N)=O)NC(=O)[C@H](CO)NC(=O)[C@H](CO)NC(=O)[C@H](Cc1c[nH]cn1)NC(=O)[C@H](Cc1c[nH]cn1)NC(=O)[C@H](CC(C)C)NC(=O)[C@H](Cc1ccccc1)NC(=O)[C@H](CCC(=O)O)NC(=O)[C@@H](C)NC(=O)[C@H](CC(C)C)NC(=O)[C@H](CCCNC(=N)N)NC(=O)[C@H](CCC(N)=O)NC(=O)[C@@H](NC(=O)[C@H](C)NC(=O)[C@@H]1CSSC[C@H](NC(=O)[C@H](CCCNC(=N)N)NC(=O)CC[C@H](NC(=O)CCCCCCCCCCCCCCCCCCC(=O)O)C(=O)O)C(=O)N[C@@H]([C@@H](C)O)C(=O)N[C@@H](C)C(=O)N[C@@H]([C@@H](C)O)C(=O)N1)[C@@H](C)O` [Compound 7, [19CD]-isoGlu-RC()TATC()ATQRL-DAla-EFLHHSSNNF-Gly(Me)-A-Ile(Me)-LSSTNVGSNTP-NH2] ({C20 diacid-γGlu}-RCTATCATQRL[dA]EFLHHSSNNF[Sar]A[NMeI]LSSTNVGSNTP-NH2; disulfide 2-6) the figure was 8.72.
For the compound `CC[C@H](C)[C@@H](C(=O)N[C@@H](CC(C)C)C(=O)N[C@@H](CO)C(=O)N[C@@H](CO)C(=O)N[C@H](C(=O)N[C@@H](CC(N)=O)C(=O)N[C@H](C(=O)NCC(=O)N[C@@H](CO)C(=O)N[C@@H](CC(N)=O)C(=O)N[C@H](C(=O)N1CCC[C@H]1C(N)=O)[C@@H](C)O)C(C)C)[C@@H](C)O)N(C)C(=O)[C@H](C)NC(=O)CN(C)C(=O)[C@H](Cc1ccccc1)NC(=O)[C@H](CC(N)=O)NC(=O)[C@H](CC(N)=O)NC(=O)[C@H](CO)NC(=O)[C@H](CO)NC(=O)[C@H](Cc1c[nH]cn1)NC(=O)[C@H](Cc1c[nH]cn1)NC(=O)[C@H](CC(C)C)NC(=O)[C@H](Cc1ccccc1)NC(=O)[C@@H](CCC(=O)O)NC(=O)[C@H](C)NC(=O)[C@H](CC(C)C)NC(=O)[C@H](CCCNC(=N)N)NC(=O)[C@H](CCC(N)=O)NC(=O)[C@@H](NC(=O)[C@H](C)NC(=O)[C@@H]1CSSC[C@H](NC(=O)[C@H](CCCNC(=N)N)NC(=O)CC[C@H](NC(=O)CCCCCCCCCCCCCCCCCCC(=O)O)C(=O)O)C(=O)N[C@@H](CC(N)=O)C(=O)N[C@@H]([C@@H](C)O)C(=O)N[C@@H](C)C(=O)N[C@@H]([C@@H](C)O)C(=O)N1)[C@@H](C)O` [Compound 8, [19CD]-isoGlu-RC()NTATC()ATQRLA-DGlu-FLHHSSNNF-Gly(Me)-A-Ile(Me)-LSSTNVGSNTP-NH2] ({C20 diacid-γGlu}-RCNTATCATQRLA[dE]FLHHSSNNF[Sar]A[NMeI]LSSTNVGSNTP-NH2; disulfide 2-7), the pEC50 is 8.59.
Regarding `CC[C@H](C)[C@@H](C(=O)N[C@@H](CC(C)C)C(=O)N[C@@H](CO)C(=O)N[C@@H](CO)C(=O)N[C@H](C(=O)N[C@@H](CC(N)=O)C(=O)N[C@H](C(=O)NCC(=O)N[C@@H](CO)C(=O)N[C@@H](CC(N)=O)C(=O)N[C@H](C(=O)N1CCC[C@H]1C(N)=O)[C@@H](C)O)C(C)C)[C@@H](C)O)N(C)C(=O)[C@H](C)NC(=O)CN(C)C(=O)[C@H](Cc1ccccc1)NC(=O)[C@H](CC(N)=O)NC(=O)[C@H](CC(N)=O)NC(=O)[C@H](CO)NC(=O)[C@H](CO)NC(=O)[C@H](Cc1c[nH]cn1)NC(=O)[C@H](Cc1c[nH]cn1)NC(=O)[C@H](CC(C)C)NC(=O)[C@@H](Cc1ccccc1)NC(=O)[C@H](CCC(=O)O)NC(=O)[C@H](C)NC(=O)[C@H](CC(C)C)NC(=O)[C@H](CCCNC(=N)N)NC(=O)[C@H](CCC(N)=O)NC(=O)[C@@H](NC(=O)[C@H](C)NC(=O)[C@@H]1CSSC[C@H](NC(=O)[C@H](CCCNC(=N)N)NC(=O)CC[C@H](NC(=O)CCCCCCCCCCCCCCCCCCC(=O)O)C(=O)O)C(=O)N[C@@H](CC(N)=O)C(=O)N[C@@H]([C@@H](C)O)C(=O)N[C@@H](C)C(=O)N[C@@H]([C@@H](C)O)C(=O)N1)[C@@H](C)O` [Compound 9, [19CD]-isoGlu-RC()NTATC()ATQRLAE-DPhe-LHHSSNNF-Gly(Me)-A-Ile(Me)-LSSTNVGSNTP-NH2] ({C20 diacid-γGlu}-RCNTATCATQRLAE[dF]LHHSSNNF[Sar]A[NMeI]LSSTNVGSNTP-NH2; disulfide 2-7), the pEC50 is 8.96.
Consider `CC[C@H](C)[C@@H](C(=O)N[C@@H](CC(C)C)C(=O)N[C@@H](CO)C(=O)N[C@@H](CO)C(=O)N[C@H](C(=O)N[C@@H](CC(N)=O)C(=O)N[C@H](C(=O)NCC(=O)N[C@@H](CO)C(=O)N[C@@H](CC(N)=O)C(=O)N[C@H](C(=O)N1CCC[C@H]1C(N)=O)[C@@H](C)O)C(C)C)[C@@H](C)O)N(C)C(=O)[C@H](C)NC(=O)CN(C)C(=O)[C@H](Cc1ccccc1)NC(=O)[C@H](CC(N)=O)NC(=O)[C@H](CC(N)=O)NC(=O)[C@H](CO)NC(=O)[C@H](CO)NC(=O)[C@H](Cc1c[nH]cn1)NC(=O)[C@@H](Cc1c[nH]cn1)NC(=O)[C@H](CC(C)C)NC(=O)[C@H](Cc1ccccc1)NC(=O)[C@H](CCC(=O)O)NC(=O)[C@H](C)NC(=O)[C@H](CC(C)C)NC(=O)[C@H](CCCNC(=N)N)NC(=O)[C@H](CCC(N)=O)NC(=O)[C@@H](NC(=O)[C@H](C)NC(=O)[C@@H]1CSSC[C@H](NC(=O)[C@H](CCCNC(=N)N)NC(=O)CC[C@H](NC(=O)CCCCCCCCCCCCCCCCCCC(=O)O)C(=O)O)C(=O)N[C@@H](CC(N)=O)C(=O)N[C@@H]([C@@H](C)O)C(=O)N[C@@H](C)C(=O)N[C@@H]([C@@H](C)O)C(=O)N1)[C@@H](C)O` [Compound 11, [19CD]-isoGlu-RC()NTATC()ATQRLAEFL-DHis-HSSNNF-Gly(Me)-A-Ile(Me)-LSSTNVGSNTP-NH2] ({C20 diacid-γGlu}-RCNTATCATQRLAEFL[dH]HSSNNF[Sar]A[NMeI]LSSTNVGSNTP-NH2; disulfide 2-7), for which the pEC50 is 8.64.
